{
  "source": "paper PMC10647090",
  "about": "“Structure-Based Discovery of Mouse Trace Amine-Associated Receptor 5 Antagonists” (Journal of Chemical Information and Modeling, 2023)",
  "key": {"[1]": {"molecular_target": "T1, mTAAR5 (Mus musculus, UniProt Q5QD14)", "T1 construct": "rho tag (rhodopsin-derived tag) (N); expressed in transfected cells; host or cells: HEK293, transient transfection with lipofectamine 2000; plasmid a gift from Prof; Liberles", "T1 sequence (Q5QD14 1-337)": "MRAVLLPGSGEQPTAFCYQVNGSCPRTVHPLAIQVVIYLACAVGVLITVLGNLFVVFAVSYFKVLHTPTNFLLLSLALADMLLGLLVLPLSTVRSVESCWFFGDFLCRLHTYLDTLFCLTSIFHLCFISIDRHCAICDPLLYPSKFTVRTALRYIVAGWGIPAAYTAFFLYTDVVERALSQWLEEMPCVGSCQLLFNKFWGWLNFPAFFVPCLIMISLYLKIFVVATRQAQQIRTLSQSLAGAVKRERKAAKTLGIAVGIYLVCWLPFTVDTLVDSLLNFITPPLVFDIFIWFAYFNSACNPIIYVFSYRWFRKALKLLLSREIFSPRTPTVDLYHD", "parameters": "method as in PMID 29713997", "conditions": "training set inactives; cited from earlier work"}, "[2]": {"test_system": "5-HT1A", "parameters": "method as in ref 13-14 (SI)", "conditions": "ref 13-14 (SI); cited from earlier work"}, "[3]": {"molecular_target": "T1, mTAAR5", "test": "BRET cAMP assay, antagonistic activity against TMA", "type": "cell-based", "conditions": "HEK293 cells cotransfected with mTAAR5 and cAMP BRET (EPAC) biosensor; against TMA 10 μM; 3 independent experiments", "experimental": "(§1) TAAR5 is a receptor coupled to a stimulatory G protein, and its activation evokes cAMP production. Therefore, HEK293 cells were cotransfected with mTAAR5 and cAMP BRET biosensor. Light emission changes according to the cAMP fluctuation.[60] TMA (10 μM) was used as a reference mTAAR5 agonist to evaluate the activity of the compounds throughout the BRET-based assay and tested at 10 μM for either agonistic or antagonistic activity.\nHuman embryonic kidney 293cells (HEK293) were maintained in Dulbecco’s modified Eagle’s, high glucose, GlutaMAX^TM medium (Gibco^TM) supplemented with 10% 331 (v/v) of FBS and 1% penicillin/streptomycin at 37 °C in a humidified atmosphere at 95% air and 5% CO2. For the bioluminescence resonance energy transfer (BRET) experiments, cells were plated in 10 cm dishes 24 h prior to the transient transfection of 7 μg of rho-TAAR5 (a generous gift from Prof. Liberles) and 7 μg of EPAC using lipofectamine 2000 (Invitrogen). Five h after transfection, cells were plated in poly-D-lysinecoated 96-well microplates (well-assay white plate with clear bottom, Greiner) at a density of 70,000 cells per well in Opti-MEM (Gibco^TM) and then cultured for an additional 24 h. The serotonergic ligand library was purchased from Enzo (SCREEN-WELL Serotonergic ligand library).\nBRET experiments were performed as described previously.[60] All the compounds were tested at the initial concentration of 10 μM. For the evaluation of the agonistic activity, the plate was read immediately after the addition of the compounds for approximately 20 min. For the evaluation of the antagonistic activity, the compounds were added 5 min before the addition of the control TAAR5 agonist, TMA, and read for approximately 20 min. For the ones that were active, a concentration–response assessment was performed by using different concentrations of the antagonist. TMA is the standard mTAAR5 agonist and induces an increase in cAMP levels. The activity of a putative mTAAR5 antagonist was evaluated in its ability to decrease or abolish the increase of the cAMP levels induced by TMA. The IC50 was then calculated by measuring the effect of the compounds against the effect of TMA at 10 μM. Readings were collected using Tecan Infinite instrument that allows the sequential signals integration detected in the 465 to 505 nm and 515 to 555 nm windows. EPAC BRET biosensor was used to monitor cAMP levels. BRET ratio is plotted in the graphs. Increased cAMP specifically reflects an increase in the BRET ratio. The activity of an antagonist was evaluated in terms of the ability to counteract the TMA increase in the BRET ratio. The acceptor/donor ratio was calculated as previously described.[108] […] The data are representative of at least 3 independent experiments and are expressed as means ± SEM."}, "[4]": {"test_system": "5-HT1E", "parameters": "method as in ref 6, 11-12 (SI)", "conditions": "11-12 (SI); cited from earlier work"}, "[5]": {"molecular_target": "5-HT1F", "parameters": "method as in ref 6, 11-12 (SI)", "conditions": "11-12 (SI); cited from earlier work"}, "[6]": {"test_system": "5-HT4", "conditions": "cited from earlier work"}, "[7]": {"test_system": "empty vector CTRL cells", "test": "BRET cAMP assay in cells without mTAAR5 (empty vector)", "type": "cell-based, human", "conditions": "HEK-293 cells transfected with EPAC cAMP BRET biosensor and empty vector; listed as TMA", "experimental": "as §1\nFigure S6. Effect of TMA on cAMP level is mediated by mTAAR5. HEK-293 cells were transfected with\nEPAC cAMP BRET biosensor with mTAAR5 or empty vector.\ncalculated as mean ± SEM of 3 independent experiments.\n(1 picture or pasted object on this page, not shown here)"}, "[8]": {"molecular_target": "T1, mTAAR5", "test": "BRET cAMP assay, agonistic activity", "type": "cell-based", "conditions": "HEK-293 cells transfected with EPAC cAMP BRET biosensor and mTAAR5; compared to saline", "experimental": "as §1\nHuman embryonic kidney 293cells (HEK293) were maintained in Dulbecco’s modified Eagle’s, high glucose, GlutaMAX^TM medium (Gibco^TM) supplemented with 10% 331 (v/v) of FBS and 1% penicillin/streptomycin at 37 °C in a humidified atmosphere at 95% air and 5% CO2. […]\nBRET experiments were performed as described previously.[60] […] For the evaluation of the agonistic activity, the plate was read immediately after the addition of the compounds for approximately 20 min. For the evaluation of the antagonistic activity, the compounds were added 5 min before the addition of the control TAAR5 agonist, TMA, and read for approximately 20 min. […] The activity of a putative mTAAR5 antagonist was evaluated in its ability to decrease or abolish the increase of the cAMP levels induced by TMA. […] Readings were collected using Tecan Infinite instrument that allows the sequential signals integration detected in the 465 to 505 nm and 515 to 555 nm windows. […]"}, "[9]": {"molecular_target": "T1, mTAAR5", "conditions": "cited from earlier work; for Potency pEC50 (negative log of EC50, modulating cAMP levels): mTAAR5 agonist; for Potency pIC50 (negative log of IC50, modulating cAMP levels): mTAAR5 antagonists"}, "[10]": {"molecular_target": "5-HT1A", "conditions": "cited from earlier work"}},
  "note": "Entries after “also recorded” stand apart in the source; their conditions may differ. Like-named read-outs stand apart in the source and are kept apart here.",
  "data": [
    {"compound": "CCN(CC)CCNC(=O)c1cc(Cl)c(N)cc1OC", "note": "[Metoclopramide]", "values": [
      {"measurement": "activity at mTAAR5 in previous HTS campaigns", "setting": "[1]", "result": "inactive"}
    ]},
    {"compound": "CCCN(CCC)[C@@H]1CCc2c(OC)cccc2[C@@H]1C", "note": "[(+)-UH 232]", "values": [
      {"measurement": "activity at mTAAR5 in previous HTS campaigns", "setting": "[1]", "result": "inactive"}
    ]},
    {"compound": "CCCN(CCC)C1CCc2cccc(O)c2C1", "note": "(centres unmarked) [Compound 6, 7-(dipropylamino)-5,6,7,8-tetrahydronaphthalen-1-ol]", "values": [
      {"measurement": "5-HT1A pEC50", "setting": "[2]", "result": 7.24},
      {"measurement": "IC50", "setting": "[3]", "result": 3.8, "unit": "µM"}
    ]},
    {"compound": "N-[2-(piperidinylamino)ethyl]-4-iodobenzamide", "values": [
      {"measurement": "activity at mTAAR5 in previous HTS campaigns", "setting": "[1]", "result": "inactive"}
    ]},
    {"compound": "CN1CCC(c2c[nH]c3ccc(O)cc23)CC1", "note": "[Compound 5, 3-(1-methylpiperidin-4-yl)-1H-indol-5-ol]", "values": [
      {"measurement": "5-HT1E pEC50", "setting": "[4]", "result": 8.16},
      {"measurement": "5-HT1F pKi", "setting": "[5]", "result": 8.15},
      {"measurement": "IC50", "setting": "[3]", "result": 2.7, "unit": "µM"}
    ]},
    {"compound": "CCN(CC)CCOC(=O)c1cc(Cl)c(N)cc1OC", "note": "[Compound 8, 2-(diethylamino)ethyl-4-amino-5-chloro-2-methoxybenzoate]", "values": [
      {"measurement": "5-HT4 pIC50", "setting": "[6]; ref 17 (SI)", "result": 6.11},
      {"measurement": "IC50", "setting": "[3]", "result": 13, "unit": "µM"}
    ]},
    {"compound": "COc1cc(N)c(Cl)cc1C(=O)OCCCN1CCCCC1", "note": "[Compound 7, 3-(piperidin-1-yl)propyl 4-amino-5-chloro-2-methoxybenzoate]", "values": [
      {"measurement": "5-HT4 pIC50", "setting": "[6]; ref 15-16 (SI)", "result": 6.31},
      {"measurement": "IC50", "setting": "[3]", "result": 4.7, "unit": "µM"}
    ]},
    {"compound": "CN(C)C", "note": "[Compound 1, Trimethylamine]", "values": [
      {"measurement": "effect on cAMP level in the absence of mTAAR5", "setting": "[7]", "result": "not in empty vector CTRL cells; also recorded: no cAMP fluctuation"},
      {"measurement": "effect on cAMP level with mTAAR5 expressed", "setting": "[8]", "result": "increases cAMP levels"},
      {"measurement": "Potency pEC50 (negative log of EC50, modulating cAMP levels)", "setting": "[9]", "result": "pEC50: 5.49"}
    ]},
    {"compound": "COc1ccccc1N1CCN(CC2CCC(c3ccccc3)(c3ccccc3)O2)CC1", "note": "(centres unmarked) [Compound 3, 1-[(5,5-Diphenyloxolan-2-yl)methyl]-4-(2-methoxyphenyl)piperazine]", "values": [
      {"measurement": "Potency pIC50 (negative log of IC50, modulating cAMP levels)", "setting": "[9]", "result": "pIC50: 4.36"},
      {"measurement": "5-HT1A pKi", "setting": "[10]; ref 10 (SI)", "result": 7.64}
    ]},
    {"compound": "COc1ccccc1OCCNCC1COC(c2ccccc2)(c2ccccc2)O1", "note": "(centres unmarked) [Compound 4]", "values": [
      {"measurement": "Potency pIC50 (negative log of IC50, modulating cAMP levels)", "setting": "[9]", "result": "pIC50: 3.54"},
      {"measurement": "5-HT1A pKi", "setting": "[10]; ref 5 (SI)", "result": 9.22}
    ]},
    {"compound": "C[N+](C)(C)CCC(=O)c1cccc2ccccc12", "note": "[Compound 2, Trimethyl-(3-naphthalen-1-yl-3-oxopropyl)azanium]", "values": [
      {"measurement": "Potency pEC50 (negative log of EC50, modulating cAMP levels)", "setting": "[9]", "result": "pEC50: 5.82"}
    ]}
  ]
}
